Experimental data as given in patent US20240342255A1, “TARGETING 3-KETODIHYDROSPHINGOSINE REDUCTASE (KDSR) IN CANCER” (UNIVERSITY OF MASSACHUSETTS, priority 2021, published 2024).
Where “and” joins values, the source holds several entries; their conditions need not be identical. Equal entries are not always repeated. Residues, ends and D or L forms follow the SMILES beside them. *: point of attachment. Cbz = O=C(OCc1ccccc1)*

How the values were obtained:
Format in all cases: cell-based
[1] = test system: DLD1 cells; test: LC-MS quantification of sphingomyelin and ceramide after CRISPR-Cas9 gene KO; conditions: biological replicates (1)-(3); for Total (RATIO), Cer + SM by LC-MS / Cer (RATIO), total ceramide level by LC-MS / SM (RATIO), total sphingomyelin level by LC-MS: 8 days post lentiviral infection; for Cer (RATIO), total ceramide level by LC-MS / SM (RATIO), total sphingomyelin level by LC-MS: normalized intensities relative to internal standards per mg protein
Experimental: DLD1 cells were plated to 6 wells and infected for lentiviral transduction of lentiCRISPR v2 with nontargeting CTRL guide, KDSR g1, or SPTLC1 g1, with each condition infected in biological triplicate. Cells were selected with puromycin for 5 days and collected for analysis at 8 days post lentiviral infection. Cells were trypsinized, quickly washed 2× in cold PBS, centrifuged, and the cell pellet was collected for analysis. Lipid analysis was performed at the UCSD Lipidomics Core^17. For quantification of sphingomyelin and ceramide species, samples were extracted via Butanol-Methanol (BUME) with 100 ul/sample. The lipid (top) layer was collected, solvent was removed, and samples were reconstituted in 100 ul LC solvent (18:1:1, IPA/DCM/MeOH). Samples were run on Reverse Phase-Ultra Performance Liquid Chromatography (Thermo Vanquish UPLC) on the Cortecs T3 C18 column. Mass spectrometry was performed on the Thermo Q Exactive Mass Spectrometer with MS/MS data dependent acquisition scan mode and analyzed with Lipid Data Analyzer (LDA) and LipidSearch software. All data are expressed as normalized intensities relative to exactly measured internal standards and constitute relative abundances per mg protein. For the identification of each lipid molecular species including its exact fatty acid composition, we used MS/MS footprinting techniques. Details of methods and nomenclature used were adapted from a previous study^18.
Total sphingomyelin levels under each condition were calculated as the sum of 121 analytes and total ceramide levels as the sum of 81 analytes. The ratio of total sphingomyelin and ceramide levels in KDSR and SPTLC1 KO cells were calculated relative to CTRL cells as shown in FIG. 1e. The select species of sphingomyelins and ceramides shown in Extended Data FIG. 2 represent the top 10 most abundant species that were detected in all 3 biological replicate samples of the CTRL condition to show the effect of SPTLC1 and KDSR KO on the most abundant sphingolipids compared to CTRL.

[2] = test system: DLD1 cells; test: Myriocin rescue and palmitate synergy viability experiments in KDSR KO cells
Experimental: Cells were plated to 6 wells and infected with lentiviruses containing pLCv2 CTRL or guides targeting KDSR. Cells were selected with puromycin for 4-5 days and were then counted and plated to 96 well plates at 6 days post lentiviral infection at 600-800 cells/well in technical triplicate or quadruplicate. Baseline cell viability was read at 7 days post infection, at which time the other 96 well plates (to be read at later timepoints) were treated with DMSO vehicle or 2 uM myriocin for rescue experiments or with EtOH vehicle or 50 uM palmitate for synergy experiments. For myriocin rescue experiments, subsequent CTG readings were taken at days 3 and 5 post treatment (10 and 12 days post infection) to determine the effect of SPT inhibition on KDSR KO toxicity. For synergy experiments, subsequent CTG readings were taken at 24, 48, and 72 hr post treatment (8, 9, and 10 days post infection) to measure the effect of KDSR KO and palmitate treatment on cell viability relative to CTRL vehicle treated cells.
To determine whether KDSR KO and 50 uM palmitate have a synergistic toxic effect on cells (FIG. 2C), we used the Bliss Independence Model. […]

[3] = test system: DLD1 cells; test: Cell morphology by light microscope / calnexin immunofluorescence
[4] = test system: DLD1 cells; test: LC-MS quantification of 3KDS in cultured cells
Experimental: The levels of 3-ketodihydrosphingosine (3KDS) were quantified in both cells grown in culture and in tumor tissues from the in vivo xenograft experiment. Lipid analysis was performed at the UCSD Lipidomics Core^17. For the in vitro experiment, DLD1 cells were infected for lentiviral transduction of pLCv2 with nontargeting CTRL guide, KDSR g1, or SPTLC1 g1. Cells were selected with puromycin for 5 days and were treated with the appropriate conditions (vehicle, 50 uM palmitate, 15 uM myriocin) at 6 days post infection. Cells were trypsinized, quickly washed 2× in cold PBS, centrifuged, and the cell pellet was collected for analysis at 8 days post lentiviral infection and 48 hr post treatment. 3KDS quantification was normalized to the protein content of n=3 independently prepared cell extracts for each condition.
Samples were extracted with DCM/MeOH (1:1) and 1× internal standards were added to extracts. Samples were vortexed, sonicated for 10 minutes, and then centrifuged at 5000 rpm for 5 min. Samples were re-extracted, combined, and dried down in a speed vac. Samples were run on the ACQUITY UPLC System (Waters) on a Phenomenex Kinetex C18 column. Mass spectrometry analysis was performed on the Sciex 6500 Qtrap mass spectrometer and data were analyzed using Sciex Analyst and Multiquant software packages.

[5] = test system: DLD1 cells; test: Lipid free viability assay; conditions: 15 μM myriocin, 72 hr, 10% charcoal stripped serum (FIG. 1F)
Experimental: DLD1 cells were grown in media with 10% FBS (normal growth condition) or 10% charcoal stripped serum (lipid free condition) for 1 week prior to lentiviral infection for CRISPR-mediated gene KO. Cells were infected in 6 wells, selected with puromycin, and plated to 96 wells as described previously in the appropriate serum conditions throughout the entirety of the experiment. Baseline CTG was measured at day 7 post infection, and subsequently at day 10 post infection. For the myriocin treated condition, CTRL cells were treated with 15 μM myriocin at day 7 post infection and were treated for 72 hr at the time of day 10 CTG measurement. Viability was calculated over the course of 3 days of growth and measured relative to CTRL untreated condition.

[6] = test system: KDSR; test: Western blot of KDSR protein after CRISPR/Cas9 targeting in non-cancerous cell lines; conditions: seven non-cancerous cell lines (THLE3, CCD841CON, CCD18Lu, HIEC6, HS67, GM05565, GM02037), FIGS. 10A-10G
Experimental: (§1) Cells were washed in cold PBS and resuspended in 1% Triton-X 100 containing protease inhibitor cocktail and lysed on ice. Following cell lysis, samples were centrifuged at 13,000 rpm at 4° C. for 10 min to remove cell debris and the supernatant (cell lysate) was collected. The protein concentration of each lysate was measured by Bradford Assay. Western blot samples were prepared by diluting lysates in 6× Laemmli Buffer and boiled at 95° C. for 10 min. Samples were loaded to polyacrylamide gels at equal protein concentrations and analyzed by standard SDS-PAGE western blotting techniques. Protein levels were detected using HRP-conjugated secondary antibodies and chemiluminescent substrates (Pierce ECL or Pico PLUS).
Western blots were performed to confirm that KDSR expression was reduced or eliminated in the cell line after CRISPR/Cas9 KO of KDSR. […] For each experiment, actin served as a loading control.

[7] = test system: DLD1 cells; test: Western blot of K48 ubiquitinated proteins; conditions: DLD1 cells treated with MG132 (FIG. 4C)
Experimental: as §1

[8] = test system: DLD1 cells; test: Protein aggresome staining; conditions: 3 μM MG132, 18 hr
Experimental: Cells were grown on coverslips coated with PDL/laminin and were stained for protein aggresomes at 9 days post lentiviral infection for CTRL or KDSR KO or 18 hr post treatment with vehicle or 3 uM MG132. Protein aggresomes were detected using the PROTOEOSTAT Aggresome detection kit (Enzo Life Sciences), which contains a dye that fluoresces upon intercalation into the cross-beta spine of protein structures found in misfolded and aggregated proteins. For aggresome staining, cells were fixed in 4% PFA, washed in PBS, and permeabilized in 0.5% TXB on ice with gentle shaking for 30 minutes. Cells were washed in PBS following permeabilization and were subsequently incubated with the Aggresome Detection Reagent diluted 1:2000 in PBS for 45 min at room temperature protected from light. Cells were washed with PBS after staining and coverslips were mounted to microscope slides using ProLong Gold Antifade Mountant containing DAPI. Cells were imaged using the Zeiss LSM700 confocal microscope and Zen Black 2012 Software.

[9] = test system: DLD1 cells; test: Cell viability (CellTiter-Glo) with exogenous 3KDS treatment
Experimental: Cell viability was measured using CellTiter-Glo 2.0 Cell Viability Assay (Promega), which measures the number of viable (metabolically active) cells in culture by quantitating the amount of ATP present. CellTiter-Glo (CTG) Reagent and 96 well plates containing the cells were equilibrated to room temperature, 20 ul of CTG reagent was added to each well of cells and incubated for 20 minutes protected from light. Luminescence was read with an integration time of 1.0 sec using the Beckman Coulter DTX880 Multimode Detector plate reader.
For determination of relative viability as depicted in figures, CTG was measured at 2 different timepoints. The first viability measurement was taken as the baseline on the day after cells were plated to 96 wells, and the second viability measurement was taken at a later timepoint (1-5 days after baseline) to calculate the fold change viable cells over time for each condition (Day X CTG/Baseline CTG). These fold change values were then divided by the fold change of the control condition (=1.0) to determine the relative viability.

SPTLC1 g1: CRISPR-Cas9 guide RNA targeting SPTLC1, GTGCTACTCACCTTAACCCT, SEQ ID NO: 2 (expressed or natural sequence; listed as Homo sapiens)
Total (RATIO), Cer + SM by LC-MS [1]: 720.1 and 485.8 and 520.4 | Cer (RATIO), total ceramide level by LC-MS [1]: 66.2 and 36.6 and 66.9 | SM (RATIO), total sphingomyelin level by LC-MS [1]: 653.9 and 449.2 and 453.5 | Cer (Percentage of total) [1]: 9.2% and 7.5% and 12.9% | SM (Percentage of total) [1]: 90.8% and 92.5% and 87.1%

CCCCCCC(=O)CCCCCC/C=C/C[C@@H](O)[C@H](O)[C@@](N)(CO)C(=O)O [myriocin, Myriocin]
effect of myriocin on viability of KDSR KO cells ([2]; 2 μM myriocin, 72 hr (FIG. 2D)): rescued against the loss of viability | morphology of KDSR KO cells under SPT inhibition ([3]; KDSR KO DLD1 cells, 15 μM myriocin, 48 hr (FIG. 2G)): rescued the aberrant morphological phenotype | 3KDS accumulation in KDSR KO cells under SPT inhibition ([4]; KDSR KO DLD1 cells, 15 μM myriocin, 48 hr (FIG. 2F)): prevented 3KDS accumulation | viability in lipid-free serum [5]: detrimental to cancer cell viability

KDSR g2: CRISPR-Cas9 guide RNA targeting KDSR, GGCAAACTTGGATGCAGAGT, SEQ ID NO: 5 (listed as DNA, chemistry not given here; listed as Homo sapiens)
KDSR expression after CRISPR/Cas9 targeting [6]: eliminated or substantially reduced

KDSR g1: CRISPR-Cas9 guide RNA targeting KDSR, TGTGTGCAAACCAGAACAGG, SEQ ID NO: 4 (listed as DNA, chemistry not given here; listed as Homo sapiens)
KDSR expression after CRISPR/Cas9 targeting [6]: eliminated or substantially reduced | Total (RATIO), Cer + SM by LC-MS [1]: 535.9 and 709.0 and 681.9 | Cer (RATIO), total ceramide level by LC-MS [1]: 67.9 and 101.4 and 99.2 | SM (RATIO), total sphingomyelin level by LC-MS [1]: 468.0 and 607.6 and 582.7 | Cer (Percentage of total) [1]: 12.7% and 14.3% and 14.5% | SM (Percentage of total) [1]: 87.3% and 85.7% and 85.5%

CCCCCCCCCCCCCCCC(=O)O [palmitate, Palmitic Acid]
effect of palmitate on viability of KDSR KO cells (Bliss independence) ([2]; 50 μM palmitate, 48 hr (FIG. 2C)): synergized with the toxic effect of KDSR KO | accumulation of 3KDS ([4]; KDSR KO DLD1 cells treated with 50 μM palmitate, 48 hr, relative to CTRL vehicle (FIG. 2F)): 800 fold

CC(C)C[C@@H](C=O)NC(=O)[C@H](CC(C)C)NC(=O)[C@H](CC(C)C)NC(=O)OCc1ccccc1 [MG132, MG-132] (Cbz-Leu-Leu-Leu-aldehyde)
levels of K48 ubiquitinated proteins [7]: accumulation of K48 ubiquitinated proteins | morphological phenotype / ER structure ([3]; DLD1 cells, 3 μM MG132, 18 hr, light microscope and calnexin IF (FIG. 4D)): strongly resembled the aberrant enlarged ER structures | protein aggresome formation [8]: induced formation of protein aggresomes

CCCCCCCCCCCCCCCC(=O)C(N)CO (stereo not drawn) [3KDS, 3-ketodihydrosphingosine]
effect of exogenous 3KDS on cell viability ([9]; DLD1 cells, various doses, 24 hr (FIG. 2B)): cell toxicity | toxicity of 3KDS in KDSR KO cells ([9]; KDSR g1 and g2 KO DLD1 cells, 5 μM 3KDS, 24 hr (FIG. 6)): even more toxic | cell morphology after 3KDS treatment ([3]; wildtype DLD1 cells, 10 μM 3KDS, 24 hr (FIG. 2G)): aberrant ‘vacuolar’ morphology
